{"source": "patent US20120122969A1", "about": "“TREATMENT OF PERVASIVE DEVELOPMENTAL DISORDERS WITH TOCOTRIENOLS OR TOCOTRIENOL ENRICHED EXTRACTS” (AMPERE LIFE SCIENCES, INC., priority 2009, published 2012)", "tested_on": "Human Dermal Fibroblasts from Autistic Patients", "test": "Rescue of ASD fibroblasts stressed by addition of L-buthionine-(S,R)-sulfoximine (BSO), Calcein AM viability readout", "format": "cell-based", "settings": "1 mM BSO, 48 hours, Calcein AM fluorescence, viability relative to non-BSO treated fibroblasts (100%); read-out: EC50 of protection against ASD (rescue of BSO-stressed ASD fibroblasts)", "procedure": "A screen was performed to identify compounds effective for the amelioration of ASD. Test samples, and solvent controls were tested for their ability to rescue ASD fibroblasts stressed by addition of L-buthionine-(S,R)-sulfoximine (BSO).\nMEM (a medium enriched in amino acids and vitamins, catalog no. Gibco 11965) and Fetal Calf Serum were obtained from Invitrogen. Basic fibroblast growth factor and epidermal growth factor were purchased from PeproTech. Penicillin-streptomycin-glutamine mix, L-buthionine (S,R)-sulfoximine, and insulin from bovine pancreas were purchased from Sigma. Calcein AM was purchased from Molecular Probes. Cell culture medium (ATP) was made by combining 75 ml Fetal Calf Serum, 100 U/ml penicillin, 100 μg/ml streptomycin, 2 mM glutamine, 10 ng/ml EGF, and 10 ng/ml bFGF; MEM EBS was added to make the volume up to 500 ml. A 10 mM BSO solution was prepared by dissolving 444 mg BSO in 200 ml of medium with subsequent filter-sterilization. […]\n100 μl of PBS containing 1.2 μM Calcein AM were then added to each well. […] After that time the PBS was discarded, the plate gently tapped on a paper towel and fluorescence (excitation/emission wavelengths of 485 nm and 525 nm, respectively) was read on a Gemini fluorescence reader. […]\nThe viability of non-BSO treated fibroblasts was set as 100%, and the viability of the BSO- and compound-treated cells was calculated as relative to this value."}
{"substance": "alpha-tocotrienol", "values": [{"measurement": "EC50", "value": "< 50", "unit": "nM"}]}
